Structures can show the parent of a compound that is named as a salt.
Legend:
barley (Hordeum vulgare) = assay: Dwarfing of barley (plant height, greenhouse, foliar spray); format: in vivo; settings: three weeks after spraying
Procedure: (§1) In the following tests, test compounds are dissolved or dispersed in acetone-water (1:1) mixtures at the final concentration corresponding to the kg/ha rates indicated in the table below. The solution also contains 0.25% v/v colloidal BIOFILM® (a product of Colloidal Products Corp.) which is a mixture of alkyl aryl polyethoxyethanol, free and combined fatty acids, glycol ethers, dialkylbenzene carboxylate and 2-propanol.
(§2) The plant species used in these tests are barley (Hordeum vulgare), (Mexico) and soybean (Glycine max)Adelphia.
(§3) The solution or dispersion of the compound under test is sprayed at a rate of 747 l/ha with a moving nozzle along an overhead stationary track. The spray nozzle moves at a constant speed over the plants.
(§4) The plants are grown in plastic pots, and are well established at the time of treatment. The seedlings of barley are 10 to 20 cm in height, while the seedlings of soybeans are at the second to third trifoliate stage. Plants are watered prior to treatment and then sprayed to provide the kg/ha rate of test compound desired. After spraying the plants are placed on greenhouse benches and watered and fertilized in accordance with normal greenhouse procedures.
(§5) Three weeks after spraying the plants are measured and harvested. Harvesting is done at the boot stage. All treatments are replicated six times and comparisons are made against untreated controls. Data obtained are reported in Table VI below as percent reduction in plant height over untreated controls.

[1] = tested on: soybean (Glycine max) Adelphia; assay: Dwarfing and stem stiffening of soybeans (plant height, greenhouse, foliar spray); format: in vivo; settings: three weeks after spraying
Procedure: as §1, §2, §3, §4, §5

[2] = tested on: soybeans (Glycine max) Adelphia variety; assay: Increasing axillary branching and improving the canopy of broad leaf plants (soybeans); format: in vivo, soybean (Glycine max); settings: three weeks after treatment
From the text: In these tests seedling soybean plants approximately three weeks old, and grown in plastic pots to the 2nd to 3rd trifoliate stage, are sprayed with solutions or dispersions of test compound prepared as described in Example 7 above. The same spraying apparatus, described in Example 7 above, is used and after spraying the plants are placed on greenhouse benches and watered and fertilized. Three weeks after treatment the plants are examined to determine what effect the application of test compound has had on the axillary branching and canopy development of the treated plants.
Increased axillary branching and improved canopy are biological responses which are highly advantageous in the growing of ornamental plants. These responses also have advantage in many crops since increased branching may result in the greater production of fruit, while improved canopy tends to shade and suppress the growth of undesirable weeds that compete with the crops for sunlight, water and plant nutrients. Data obtained are reported in table VII below where axillary branching and canopy are reported as percent increase over untreated controls.

[3] = tested on: soybeans (Glycine max) var. Adelphia; assay: Increasing flowering of plants (soybeans); format: in vivo, soybean (Glycine max); settings: three weeks after spraying
Procedure: In the following tests seedling soybean plants growing in plastic cups are sprayed with aqueous-acetone solutions or dispersions of test compounds when they have reached the 2nd to 3rd trifoliate stage. Test solutions or dispersions are prepared with 0.25 v/v Colloidal BIOFILM® surfactant and sufficient test compound to provide the plants with 0.5, 0.25, 0.125 or 0.06 kg/ha of said compound when the test solutions are sprayed on said plants from an overhead sprayer delivering 747 l/ha of solution.
After spraying the plants are placed on greenhouse benches and watered and fertilized. Three weeks after spraying the plants are examined and the amount of flowering determined for all plants. Data obtained are reported in the table below as percent increase in flowering over untreated controls.
From the data reported in Table VIII below it can be seen that the compounds of the present invention applied at rates of from 0.06 to 0.25 kg/ha enhance flowering of treated plant more than 10% over untreated controls. This response is particularly desirable for treatment of flowering varieties of ornamental plants as well as agronomic crops.

[4] = rate 0.125 kg/ha, potassium salt
[5] = rate 0.25 kg/ha, potassium salt

`O=[N+]([O-])Nc1c(Br)cc(Br)cc1Br` [2,4,6-Tribromo-N--nitroaniline, potassium salt] was tested, and the “% Reduction in Plant Height over untreated controls” value (“% Reduction in Plant Height” below) (barley (Hordeum vulgare); rate 0.17 kg/ha, potassium salt) was 2.7%, the “% Reduction in Plant Height” value (barley (Hordeum vulgare); rate 0.50 kg/ha, potassium salt) was 11.8% and the “% Reduction in Plant Height” value (barley (Hordeum vulgare); rate 1.5 kg/ha, potassium salt) was 2.0%. The “% Reduction in Plant Height” value [1, 4] was over 5%, the “% Reduction in Plant Height” value [1, 5] was over 5% and the “% Reduction in Plant Height” value ([1]; rate 0.5 kg/ha, potassium salt) was over 30%. The “% Increase in axillary branching over untreated controls” value (“% Increase in axillary branching” below) [2, 4] was “normal”, the “% Increase in axillary branching” value [2, 5] was “normal” and the “% Increase in Plant Canopy over untreated controls” value ([2]; rate 0.5 kg/ha, potassium salt) was “normal”. The “% Increase in Flowering over untreated controls” value (shortened to “% Increase in Flowering”) ([3]; rate 0.5 kg/ha, potassium salt) was “normal”.

For `O=[N+]([O-])Nc1c(Br)cc(Br)cc1Br` [2,4,6-Tribromo-N--nitroaniline, sodium salt], the “% Reduction in Plant Height” value (barley (Hordeum vulgare); rate 0.17 kg/ha, sodium salt) was 6.2%, the “% Reduction in Plant Height” value (barley (Hordeum vulgare); rate 0.50 kg/ha, sodium salt) was 13.0% and the “% Reduction in Plant Height” value (barley (Hordeum vulgare); rate 1.5 kg/ha, sodium salt) was 13.0%. For the same compound, the “% Reduction in Plant Height” value ([1]; rate 0.125 kg/ha, sodium salt) was over 35%, the “% Reduction in Plant Height” value ([1]; rate 0.25 kg/ha, sodium salt) was over 40% and the “% Increase in Flowering” value ([3]; rate 0.5 kg/ha, sodium salt) was “normal”.

In the case of `O=[N+]([O-])Nc1c(Br)cc(Br)cc1Br` [Methyltriphenyl phosphonium salt with 2,4,6-tribromo-N--aci-] [Methyltriphenyl phosphonium salt with 2,4,6-tribromo-N--aci-nitroaniline], the “% Reduction in Plant Height” value ([1]; rate 0.125 kg/ha) was over 25%, the “% Reduction in Plant Height” value ([1]; rate 0.25 kg/ha) was over 35% and the “% Reduction in Plant Height” value ([1]; rate 0.5 kg/ha) was over 50%. For the same compound, the “% Increase in Plant Canopy over untreated controls” value ([2]; rate 0.125 kg/ha) was “normal”, the “% Increase in axillary branching” value ([2]; rate 0.125 kg/ha) was “normal” and the “% Increase in axillary branching” value ([2]; rate 0.25 kg/ha) was “normal”. The “% Increase in Flowering” value ([3]; rate 0.125 kg/ha) was “normal”.
